Read-outs that look alike come from different tables or passages of the source.
What was measured:
Format in all cases: cell-based
[1] = test system: Human diffuse large B-cell lymphoma cell line (TMD8); test: Inhibition of TMD8 cell proliferation (CellTiter luminescent viability); details: Homo sapiens, TMD8, 96 h; for inhibition at 0.01 µM: TMD8, 10 nM, read-out: Inhibition Rate at 10 nM (%); for inhibition at 0.5 µM: TMD8, 500 nM, read-out: Inhibition Rate at 500 nM (%)
Procedure: (§1) The tumor cells used herein were cultured in a cell culture medium listed in table 3 at 37 °C in an incubator with 5% CO2. Prior to experimentation, all cell lines used were correctly identified by STR profiling, and tested negative for mycoplasma contamination using a mycoplasma detection kit through routine screenings.
(§2) The IC50 values of the compounds of the present disclosure (including the compounds in Table 1, Table 2, and Examples 1-468) were determined using the CellTiter-Meiluncell Luminescent Cell Viability Assay Kit from Dalian Meilun Biotech Co., Ltd. The detailed procedure is as follows: Tumor cells were seeded in 96-well cell culture plates at the densities specified in Table 4. On the following day, the test compounds of the present disclosure were subjected to serial dilution. The dilution can be performed according to one of the following two methods: • (1) The first dilution method: The test compounds of the present disclosure (including the compounds in Table 1, Table 2, and Examples 1-468) were subjected to 5-fold serial dilutions starting from a highest concentration of 2000 μM, resulting in a total of 9 concentrations from high to low (2000, 400, 80, 16, 3.2, 0.64, 0.128, 0.0256, 0.00512 μM). Subsequently, 0.5 μL of the test compound dilution was transferred into the 96-well plate containing the cells, with each well containing 100 μL of cell culture medium. […] Into the 96-well plate, the diluted test compounds and corresponding detection reagents were added, resulting in final test compound concentrations of 500 nM and 10 nM, respectively. The experimental procedure is described below using the diluted 2 μM test compound as an example.
(§3) 0.5 μL of the aforementioned diluted compound of the present disclosure (including the compounds in Table 1, Table 2, and Examples 1-468) was added to the seeded cells in 100 μL of medium, yielding a final test compound concentration of 10 nM. After the cells were treated with the compounds of the present disclosure for a specified period, the cell viability assay reagent was added to the culture medium according to the kit's instructions to determine cell viability. […] All controls were treated using the same procedure as the compounds of the present disclosure. The growth inhibition curves for the compounds of the present disclosure were plotted using Prism GraphPad software, and the IC50 values were calculated therefrom.

[2] = test system: Human myeloid monocytic leukemia cell line (MV-4-11); test: Inhibition of MV-4-11 cell proliferation (CellTiter luminescent viability); details: Homo sapiens, MV4-11, Table IJ2, Tau inhibitor-based, 96 hours; for inhibition at 0.01 µM: MV-4-11, 10 nM, read-out: Inhibition Rate at 10 nM (%); for inhibition at 0.5 µM: MV-4-11, 500 nM, read-out: Inhibition Rate at 500 nM (%)
Procedure, shortened: (§4)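 IC50 is fitted from luminescent viability (CellTiter-Meiluncell) curves. Nine-point, 5-fold dilution series (top stock 2000 μM) are added at 0.5 μL per 100 μL medium to cells plated the day before, with growth at 37 °C and 5% CO2.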

[3] = test system: Human acute lymphocytic leukemia T lymphocytes cell line (CCRF-CEM); test: Inhibition of CCRF-CEM cell proliferation (CellTiter luminescent viability); details: Homo sapiens, 96 h, Table IF2, AR inhibitor-based; for inhibition at 0.01 µM: 10 nM, read-out: Inhibition Rate at 10 nM (%); for inhibition at 0.5 µM: 500 nM, read-out: Inhibition Rate at 500 nM (%)
Procedure: as §1, §2, §3

[4] = test system: Human Multiple myeloma cell line (MM.1S); test: Inhibition of MM.1S cell proliferation (CellTiter luminescent viability); details: Homo sapiens, MM1.S, Table IJ1, Tau inhibitor-based, 96 hours; for inhibition at 0.01 µM: 10 nM, read-out: Inhibition Rate at 10 nM (%); for inhibition at 0.5 µM: 500 nM, read-out: Inhibition Rate at 500 nM (%)
Procedure, shortened: as §4

Row | SMILES | inhibition at 0.01 µM ([1]; Table IJ3, Tau inhibitor-based) [%] | inhibition at 0.5 µM ([1]; Table IJ3, Tau inhibitor-based) [%] | inhibition at 0.01 µM [2] [%] | inhibition at 0.5 µM [2] [%] | inhibition at 0.01 µM ([1]; Table IF1, AR inhibitor-based) [%] | inhibition at 0.5 µM ([1]; Table IF1, AR inhibitor-based) [%] | further results
1 | Cn1c2ccncc2c2ccc(-c3cnc(N4CCN(CC5CCN(c6cccc7c6C(=O)N(N6CCC(=O)NC6=O)C7=O)CC5)CC4)c(Cl)c3)cc21 [GT-08564, 4-(4-((4-(3-chloro-5-(5-methyl-5H-pyrido[4,3-b]indol-7-yl)pyridin-2-yl)piperazin-1-yl)methyl)piperidin-1-yl)-2-(2,4-dioxotetrahydropyrimidin-1(2H)-yl)isoindoline-1,3-dione] | 10 to 15 | 80 to 100 | 0 to 5 | 70 to 80 |  |  | 
2 | CC1(C)[C@H](NC(=O)c2ccc(N3CCC(CN4CC5CC(C4)N5c4ccc5c(c4)C(=O)N(N4CCC(=O)NC4=O)C5=O)CC3)nc2)C(C)(C)[C@H]1Oc1ccc(C#N)c(Cl)c1 [GT-05306, N-((1r,3r)-3-(3-chloro-4-cyanophenoxy)-2,2,4,4-tetramethylcyclobutyl)-6-(4-((6-(2-(2,4-dioxotetrahydropyrimidin-1(2H)-yl)-1,3-dioxoisoindolin-5-yl)-3,6-diazabicyclo[3.1.1]heptan-3-yl)methyl)piperidin-1-yl)nicotinamide] |  |  |  |  | 10 to 15 | 20 to 25 | inhibition at 0.01 µM [3]: 15 to 20%; inhibition at 0.5 µM [3]: 20 to 30%
3 | N#Cc1ccc(O[C@H]2CC[C@H](NC(=O)c3ccc(N4CCC(CN5CCN(c6ccc7c(c6F)C(=O)N(N6CCC(=O)NC6=O)C7=O)CC5)CC4)nn3)CC2)cc1Cl [GT-05232, N-((1r,4r)-4-(3-chloro-4-cyanophenoxy)cyclohexyl)-6-(4-((4-(2-(2,4-dioxotetrahydropyrimidin-1(2H)-yl)-4-fluoro-1,3-dioxoisoindolin-5-yl)piperazin-1-yl)methyl)piperidin-1-yl)pyridazine-3-carboxamide] |  |  |  |  | 10 to 15 | 25 to 30 | 
4 | Cn1c2ccncc2c2ccc(-c3cnc(N4CCN(CC5CCN(c6ccc7c(c6)C(=O)N(N6CCC(=O)NC6=O)C7=O)CC5)CC4)c(C(F)(F)F)c3)cc21 [GT-08553, 2-(2,4-dioxotetrahydropyrimidin-1(2H)-yl)-5-(4-((4-(5-(5-methyl-5H-pyrido[4,3-b]indol-7-yl)-3-(trifluoromethyl)pyridin-2-yl)piperazin-1-yl)methyl)piperidin-1-yl)isoindoline-1,3-dione] | 10 to 15 | 40 to 50 |  |  |  |  | 
5 | O=C1CCN(N2C(=O)c3cccc(N4CCC(CN5CCN(c6ccc(-c7ccc8c(c7)[nH]c7ccncc78)cn6)CC5)CC4)c3C2=O)C(=O)N1 [GT-08557, 4-(4-((4-(5-(5H-pyrido[4,3-b]indol-7-yl)pyridin-2-yl)piperazin-1-yl)methyl)piperidin-1-yl)-2-(2,4-dioxotetrahydropyrimidin-1(2H)-yl)isoindoline-1,3-dione] | 0 to 5 | 60 to 70 |  |  |  |  | inhibition at 0.01 µM [4]: 30 to 40%; inhibition at 0.5 µM [4]: 50 to 60%
6 | CC1(C)[C@H](NC(=O)c2ccc(N3CCC(CN4CCN(c5cc6c(cc5F)C(=O)N(N5CCC(=O)NC5=O)C6=O)CC4)CC3)nc2)C(C)(C)[C@H]1Oc1ccc(C#N)c(Cl)c1 [GT-05304, N-((1r,3r)-3-(3-chloro-4-cyanophenoxy)-2,2,4,4-tetramethylcyclobutyl)-6-(4-((4-(2-(2,4-dioxotetrahydropyrimidin-1(2H)-yl)-6-fluoro-1,3-dioxoisoindolin-5-yl)piperazin-1-yl)methyl)piperidin-1-yl)nicotinamide] |  |  |  |  | 30 to 35 | 40 to 60 | inhibition at 0.01 µM [3]: 20 to 30%; inhibition at 0.5 µM [3]: 30 to 40%
7 | Cn1c2ccncc2c2ccc(-c3ccc(N4CCN(CC5CCN(c6cccc7c6C(=O)N(N6CCC(=O)NC6=O)C7=O)CC5)CC4)nc3)cc21 [GT-08558, 2-(2,4-dioxotetrahydropyrimidin-1(2H)-yl)-4-(4-((4-(5-(5-methyl-5H-pyrido[4,3-b]indol-7-yl)pyridin-2-yl)piperazin-1-yl)methyl)piperidin-1-yl)isoindoline-1,3-dione] | 5 to 10 | 80 to 100 | -5 to 0 | 50 to 60 |  |  | 
8 | O=C1CCN(N2C(=O)c3ccc(COc4ccc(Cl)cc4-c4nc5cc(C(F)(F)F)cc(Cl)c5[nH]4)cc3C2=O)C(=O)N1 [GT-06478, 5-((4-chloro-2-(7-chloro-5-(trifluoromethyl)-1H-benzo[d]imidazol-2-yl)phenoxy)methyl)-2-(2,4-dioxotetrahydropyrimidin-1(2H)-yl)isoindoline-1,3-dione] |  |  |  |  | 15 to 20 | 30 to 35 | 
9 | CC1(C)[C@H](NC(=O)c2ccc(N3CCC(CN4CCN(C5CCN(c6ccc7c(c6)C(=O)N(N6CCC(=O)NC6=O)C7=O)CC5(F)F)CC4)CC3)nc2)C(C)(C)[C@H]1Oc1ccc(C#N)c(Cl)c1 (stereo partly shown) [GT-05347, N-((1r,3r)-3-(3-chloro-4-cyanophenoxy)-2,2,4,4-tetramethylcyclobutyl)-6-(4-((4-(1-(2-(2,4-dioxotetrahydropyrimidin-1(2H)-yl)-1,3-dioxoisoindolin-5-yl)-3,3-difluoropiperidin-4-yl)piperazin-1-yl)methyl)piperidin-1-yl)nicotinamide] |  |  |  |  | 5 to 10 | 20 to 25 | 
10 | Cc1cc(-c2ccc3c4cnccc4n(C)c3c2)cnc1N1CCN(CC2CCN(c3cccc4c3C(=O)N(N3CCC(=O)NC3=O)C4=O)CC2)CC1 [GT-08563, 2-(2,4-dioxotetrahydropyrimidin-1(2H)-yl)-4-(4-((4-(3-methyl-5-(5-methyl-5H-pyrido[4,3-b]indol-7-yl)pyridin-2-yl)piperazin-1-yl)methyl)piperidin-1-yl)isoindoline-1,3-dione] | 15 to 20 | 80 to 100 | 15 to 20 | 80 to 100 |  |  | inhibition at 0.01 µM [4]: 15 to 20%; inhibition at 0.5 µM [4]: 60 to 70%

From US20260364184A1, “COMPOUND BASED ON OXOISOINDOLINYL-SUBSTITUTED TETRAHYDROPYRIMIDINE-DIONE AND USE THEREOF” (GLUETACS THERAPEUTICS (SHANGHAI) CO., LTD., priority 2023, published 2026)
